{
  "source": "patent US8790891B2",
  "about": "“Microfluidic cell motility assay” (The General Hospital Corporation, priority 2009, dated 2014)",
  "test_system": "MDA-MB231 breast cancer cells",
  "test": "Microcapillary motility assay (MMA) with agents that alter microtubule dynamics",
  "assay_type": "cell-based, human",
  "settings": "for kymograph analysis of single cell motility: 18 hour period, FIG. 13; for concentration at which persistent motility is inhibited: microcapillaries, no chemical gradient; for effect on persistent migration behavior: different concentrations, summary of Example 11; for effect on speed of cancer cell migration through the microcapillary array: result in words",
  "from_the_text": "Referring now to FIGS. 7A-7B, a microcapillary motility assay (MMA) device 700 including microfluidic devices 750 were manufactured by casting polydimethyl siloxane (PDMS, Dow Corning, Midland. Mich.) on a microstructured mold. The microstructured mold was fabricated using standard photolithographic technologies. A silicon wafer was coated with a 10 μm thin layer of photoresist (SU8, Microchem, Newton, Mass.) and processed following the standard protocol as recommended by the manufacturer. A second, thicker layer of approximately 50 μm was then photopatterned on the same wafer and aligned with respect to the first layer in order to define the connections between the capillaries and the wells. The mold was placed in a Petri-dish and covered with PDMS freshly prepared according to the manufacturer's instructions. After baking for 8 hours at 65° C., the cast PDMS was removed from the mold, one microwell for each device was punched using a 2 mm puncher, and each device was cut using a 5 mm puncher. After exposure for 20 seconds to oxygen plasma in a plasma asher (March, Concord, Calif.), the devices were individually bonded on the coverslips at the bottom of 24-well plates (Mattek, Ashland, Mass.).\nAfter bonding, and while the PDMS was still hydrophilic, 2 μL of a solution of 2 μg/mL collagen IV was added inside the center microwell of each device. The strong capillary force ensured the collagen solution filled the capillaries. Excess collagen was later washed away by adding 5 μL of phosphate buffer (PBS) in only one well of the devices. Alternatively, 2 μL of Matrigel (BD Biosciences, San Jose, Calif.) was added in one well at 4° C. and the entire plate was heated to 37° C. for 5 minutes.\nBefore performing each migration assay, cells growing in cell culture flasks were washed with PBS, lifted from the surface using trypsin or 10 mM calcium chelator solution in buffer (EDTA, Sigma Aldrich, St. Louis, Mo.), suspended into 10 mL of media, centrifuged, and re-suspended into media at 10^6 cells/mL. Cells were then seeded in one well of each device, by directly pipetting 3-4 μL of the cell suspension in each well. After loading the cells, 3 mL of corresponding media were added to each well of the multi-well plate, completely covering the devices.\nTo image the moving cells, the multi-well plate was placed on the motorized stage of a Zeiss Axiovert microscope fitted with an environmental chamber. The environment was set at 37.7° C. and 5% CO2. Cells were imaged using 10× objective and phase contrast. Three separate images from each array were acquired every 6 minutes for 24-48 hours. Because cell motility is restricted only along the capillary, in one linear dimension, the motility is easy to image and easy to quantify for extended periods of times. We have tracked cells for more than 72 hours.\nTo quantify the migration of individual cells, images were analyzed using the manual tracking function in the Image J software. The middle of cells was tracked through the series of frames and only cells entering the microcapillaries were tracked. At least 50 cells migrating through the capillaries were tracked for each condition. Average velocity over 12 hours was calculated from temporary velocities over each 6 minutes interval and presented as mean and standard error of the mean.\nTo probe into the mechanisms responsible for persistent cell migration, we exposed the cells to drugs that alter microtubule dynamics while performing the MMA described in Example 2 using the microfluidic device shown in FIG. 2.",
  "key": {"[1]": {"settings": "MDA-MB231 breast cancer line, FIG. 11"}},
  "note": "“Also recorded” adds a separate entry of the source.",
  "data": [
    {"smiles": "COC(=O)Nc1nc2ccc(C(=O)c3cccs3)cc2[nH]1", "note": "[Nocodazole]", "values": [
      {"measurement": "kymograph analysis of single cell motility", "setting": "nocodazole 0.05 ng/mL", "value": "frequent changes of direction and less persistence"},
      {"measurement": "concentration at which migration of the fastest moving cells is inhibited", "setting": "MDA-MB231 breast cancer line, FIG. 11, only Nocodazole", "value": "above 1 ng/mL"},
      {"measurement": "concentration at which persistent motility is inhibited", "setting": "[1]", "value": "above 0.5 ng/mL"},
      {"measurement": "concentration that significantly altered the speed of migration for all cells in the population", "setting": "all cells in the population", "value": "> 1", "unit": "µM"},
      {"measurement": "effect on persistent migration behavior", "value": "alteration of the persistent migration behavior"},
      {"measurement": "concentration of significant decrease in motility (dose response)", "setting": "migration through microcapillary array", "value": "< 100", "unit": "nM"},
      {"measurement": "effect on speed of cancer cell migration through the microcapillary array", "value": "significantly decrease the speed"}
    ]},
    {"smiles": "CC(=O)O[C@H]1C(=O)[C@@]2(C)[C@H]([C@H](OC(=O)c3ccccc3)[C@]3(O)C[C@H](OC(=O)[C@H](O)[C@@H](NC(=O)c4ccccc4)c4ccccc4)C(C)=C1C3(C)C)[C@]1(OC(C)=O)CO[C@@H]1C[C@@H]2O", "note": "[Taxol, Paclitaxel]", "values": [
      {"measurement": "kymograph analysis of single cell motility", "setting": "taxol 12 nM", "value": "persistent movement along the microcapillary; also recorded: reverses direction at the end of the microcapillary"},
      {"measurement": "concentration at which persistent motility is inhibited", "setting": "[1]", "value": "above 100 ng/mL"},
      {"measurement": "speed of the fastest cells under drug", "setting": "Taxol between 1 and 10 μM, some cells only", "value": "> 100", "unit": "μm/hour"},
      {"measurement": "effect on persistent migration behavior", "value": "does not alter the persistent migration"},
      {"measurement": "effect on speed of cancer cell migration through the microcapillary array", "value": "significantly decrease the speed"}
    ]}
  ]
}
